Source: patent US6903130B1, “Pyrrolidineacetamide derivative alone or in combination for treatment of cns disorders” (UCB S.A., priority 1999, dated 2005)
Marks after values point to notes of the source that are not given here.

What was measured:
[1] = test system: epileptic patients; assay: Tolerability studies in epileptic patients; assay type: in vivo, human; conditions: doses up to 4000 mg/day; preliminary data
[2] = test system: GABA levels, GABA transaminase and glutamic decarboxylase; conditions: mouse brain; cited from earlier work
[3] = test system: diabetic rats (streptozocin-induced diabetic neuropathy); assay: Randall and Selitto test, mechanical hyperalgesia in streptozotocin diabetic rats; assay type: in vivo, rat
From the text: In order to study the activity of levetiracetam with respect to chronic or neuropathic pain, the Applicant carried out a series of experiments based on the Randall test “A method for measurement of analgesic activity on inflamed tissue; Arch. Int. pharmacodyn., 1957, CXI, No4. P 409-419”. By virtue of this protocol, it was possible to determine the ability of levetiracetam to correct hyperalgesia secondary to induction of a neuropathic problem of metabolic origin in a rodent.
The diabetic neuropathy thereby induced allowed the correction of the hyperalgesia caused by the use of levetiracetam to be measured.
The animals used for these experiments were male Sprague-Dawley rats (Charles River, France), weighing 250-280 grams (g), which had undergone induction of diabetes one week after receipt. Male Sprague-Dawley rats (200-220 g) received one interperitoneal injection of streptozocin (75 mg/kg, i.p.) (Zanosar, Upjohn, France) dissolved in distilled water. Hyperglycaemia was confirmed one week after induction by determining the quantity of blood glucose (caudal puncture) using a Dextrostix reactive strip (Ames) read using a calorimeter (Ames Division, Miles Laboratoires, France). Animals with more than 14 millimoles (mM) were considered to be diabetic. The pain thresholds were determined 3 weeks after induction of diabetes.
This model was used in accordance with the description in COURTEIX et al., “Streptozocin-induced diabetic rats. Behavioural evidence for a model of chronic pain” Pain (1993), vol. 53, p81-88. The study was performed using the following compounds: • […]: (Laboratories UCB), dissolved in distilled water. • CARBAMAZEPINE: (Sigma), dissolved in hydroxy propel methylcellulose.
As has already been mentioned above, the test explained below was performed to stimulate a reaction in the animal with a mechanical nociceptive stimulus to a hind paw. An increasing pressure was applied using an analgesia meter (Ugo Basile, type 7200), until a cry was emitted which was considered to be the pain threshold, expressed in grams.
After determining the base thresholds, the animals received the study treatments (vehicle, levetiracetam, 17, 54, 95.2 and 120 mg/kg, carbamazepine, 10 and 30 mg/kg) administered intraperitoneally (i.p.) using the equal block method to avoid any chronobiological influence. The effects of different treatments were thus determined during the same time period. The reaction thresholds were measured 15, 30, 45, 60, 90, 120 and 180 minutes (min) after administration. All of the experiments were performed blind with 8 different animals per treatment.
The results are expressed as means±standard error of mean (S.E.M.).
The dose which could overcome 50% of the hyperalgesia induced by diabetes was calculated as the “anti-hyperalgesic dose effective 50”.
Statistical comparison was carried out by means of a two-way analysis of variance followed by Fischer's PLSD multiple comparison test to analyze the temporal effect.

[4] = test system: healthy volunteers; assay: Clinical studies, tolerability in healthy volunteers; assay type: in vivo, human
[5] = test system: chloride fluxes induced by muscimol; conditions: cited from earlier work

**Q.** Which “tolerability (in words)” value [1] does the source give for `CC[C@@H](C(N)=O)N1CCCC1=O` [Levetiracetam, (S)-(−)α-ethyl-2-oxo-1-pyrrolidineacetamide] here?
**A.** good tolerability

**Q.** And the “effect on GABA levels and the enzymatic activities of GABA transaminase and glutamic decarboxylase” value [2]?
**A.** lack of effect

**Q.** What about the “anti-hyperalgesic effective dose 50” value ([3]; dose overcoming 50% of the hyperalgesia induced by diabetes, i.p.) of the same compound?
**A.** 35.1 ± 1.8 mg/kg

**Q.** And the “Effect on diabetic hyperalgesia (in words)” value ([3]; i.p., diabetic rats)?
**A.** a dose of 120 mg/kg of levetiracetam caused complete correction of hyperalgesia

**Q.** And the vocalization threshold ([3]; levetiracetam 17 mg/kg i.p. group, before diabetes (baseline), mean (SEM))?
**A.** 282.2 (5.48) g

**Q.** What about the vocalization threshold ([3]; levetiracetam 17 mg/kg i.p., 15 min after injection) of the same compound?
**A.** 211.9 (7.19)* g

**Q.** What about the vocalization threshold ([3]; levetiracetam 17 mg/kg i.p., 30 min after injection) of the same compound?
**A.** 206.3 (10.12)* g

**Q.** What about the vocalization threshold ([3]; levetiracetam 17 mg/kg i.p., 45 min after injection) of the same compound?
**A.** 193.1 (7.19) g

**Q.** And the vocalization threshold ([3]; levetiracetam 17 mg/kg i.p., 60 min after injection)?
**A.** 185.6 (4.86) g

**Q.** What about the vocalization threshold ([3]; levetiracetam 17 mg/kg i.p., 90 min after injection) of the same compound?
**A.** 178.1 (3.40) g

**Q.** And the vocalization threshold ([3]; levetiracetam 17 mg/kg i.p., 120 min after injection)?
**A.** 180.0 (2.83) g

**Q.** And the vocalization threshold ([3]; levetiracetam 17 mg/kg i.p., 180 min after injection)?
**A.** 176.3 (2.45) g

**Q.** What about the vocalization threshold ([3]; levetiracetam 17 mg/kg i.p., after diabetes, 0 min (base threshold)) of the same compound?
**A.** 181.9 (3.09) g

**Q.** What about the vocalization threshold ([3]; levetiracetam 54 mg/kg i.p. group, before diabetes (baseline), mean (SEM)) of the same compound?
**A.** 296.3 (10.12) g

**Q.** And the vocalization threshold ([3]; levetiracetam 54 mg/kg i.p., 15 min after injection)?
**A.** 238.1 g

**Q.** What about the vocalization threshold ([3]; levetiracetam 54 mg/kg i.p., 30 min after injection) of the same compound?
**A.** 243.8 (15.97)* g

**Q.** And the vocalization threshold ([3]; levetiracetam 54 mg/kg i.p., 45 min after injection)?
**A.** 230.6 g

**Q.** What about the vocalization threshold ([3]; levetiracetam 54 mg/kg i.p., 60 min after injection) of the same compound?
**A.** 189.4 (13.87) g

**Q.** And the vocalization threshold ([3]; levetiracetam 54 mg/kg i.p., 90 min after injection)?
**A.** 176.3 (8.39) g

**Q.** And the vocalization threshold ([3]; levetiracetam 54 mg/kg i.p., 120 min after injection)?
**A.** 176.3 (6.80) g

**Q.** And the vocalization threshold ([3]; levetiracetam 54 mg/kg i.p., 180 min after injection)?
**A.** 176.3 (6.80) g

**Q.** What about the vocalization threshold ([3]; levetiracetam 54 mg/kg i.p., after diabetes, 0 min (base threshold)) of the same compound?
**A.** 180.0 (5.30) g

**Q.** And the vocalization threshold ([3]; levetiracetam 95.2 mg/kg i.p. group, before diabetes (baseline), mean (SEM))?
**A.** 306.6 (11.73) g

**Q.** And the vocalization threshold ([3]; levetiracetam 95.2 mg/kg i.p., 15 min after injection)?
**A.** 264.4 g

**Q.** And the vocalization threshold ([3]; levetiracetam 95.2 mg/kg i.p., 30 min after injection)?
**A.** 283.1 (24.62)* g

**Q.** And the vocalization threshold ([3]; levetiracetam 95.2 mg/kg i.p., 45 min after injection)?
**A.** 234.4 g

**Q.** What about the vocalization threshold ([3]; levetiracetam 95.2 mg/kg i.p., 60 min after injection) of the same compound?
**A.** 180.0 (12.36) g

**Q.** And the vocalization threshold ([3]; levetiracetam 95.2 mg/kg i.p., 90 min after injection)?
**A.** 180.0 (8.02) g

**Q.** What about the vocalization threshold ([3]; levetiracetam 95.2 mg/kg i.p., 120 min after injection) of the same compound?
**A.** 159.4 (3.95) g

**Q.** And the vocalization threshold ([3]; levetiracetam 95.2 mg/kg i.p., 180 min after injection)?
**A.** 163.1 (4.43) g

**Q.** What about the vocalization threshold ([3]; levetiracetam 95.2 mg/kg i.p., after diabetes, 0 min (base threshold)) of the same compound?
**A.** 169.7 (6.00) g

**Q.** What about the vocalization threshold ([3]; levetiracetam 120 mg/kg i.p. group, before diabetes (baseline), mean (SEM)) of the same compound?
**A.** 309.4 (15.25) g

**Q.** What about the vocalization threshold ([3]; levetiracetam 120 mg/kg i.p., 15 min after injection) of the same compound?
**A.** 331.9 g

**Q.** What about the vocalization threshold ([3]; levetiracetam 120 mg/kg i.p., 30 min after injection) of the same compound?
**A.** 315.0 (30.00)* g

**Q.** And the vocalization threshold ([3]; levetiracetam 120 mg/kg i.p., 45 min after injection)?
**A.** 262.5 g

**Q.** And the vocalization threshold ([3]; levetiracetam 120 mg/kg i.p., 60 min after injection)?
**A.** 213.8 (13.52)* g

**Q.** What about the vocalization threshold ([3]; levetiracetam 120 mg/kg i.p., 90 min after injection) of the same compound?
**A.** 176.3 (7.36) g

**Q.** What about the vocalization threshold ([3]; levetiracetam 120 mg/kg i.p., 120 min after injection) of the same compound?
**A.** 174.4 (6.30) g

**Q.** And the vocalization threshold ([3]; levetiracetam 120 mg/kg i.p., 180 min after injection)?
**A.** 168.8 (4.70) g

**Q.** And the vocalization threshold ([3]; levetiracetam 120 mg/kg i.p., after diabetes, 0 min (base threshold))?
**A.** 161.3 (7.23) g

**Q.** And the “tolerability (in words)” value ([4]; repeated doses 1500 mg/day for 14 days)?
**A.** well tolerated

**Q.** And the “tolerability (in words)” value ([4]; single dose)?
**A.** well tolerated

**Q.** What about the “modulation of chloride fluxes induced by muscimol” value [5] of the same compound?
**A.** did not modulate
